Measurements taken from patent US10444244B2, “Microfluidic array supporting a lipid bilayer assembly” (DUBLIN CITY UNIVERSITY, priority 2014, dated 2019).
One block for each compound: values may come before it.

Experiments:
[1] = EIS of DOPC bilayer with K+/H+ gradient after Nigericin incorporation; type: physicochemical; details: 20 μM from ethanol solution; cavities 150 mM K+, outside citrate buffer pH 4, H+ 10 mMol
Protocol: (§1) Gold microcavity electrodes were formed through the method described herein using electrodeposition of gold through a close packed array of polystyrene spheres (2.88 micron in diameter) after which the spheres where removed by sonication in THF for 30 minutes. The gold microcavity array was then modified with mercaptoethanol (ME) by placing the substrate in a 1 mM solution of ME, in ethanol, for 24 hours. Alternatively it is possible to selectively modify the top surface with mercaptonexanol before removal of the spheres and leave the cavities free of surface modification after sphere removal. This latter approach gives even greater reproducibility.
Nigericin is an antiporter of H+ and K+, Herein, the cavities where prefilled with 150 mM K+ before bilayer formation. Citrate buffer (at pH 4) was then added to the electrolyte to supply the system with H+(10 mMol) ions on the outside of the bilayer. The impedance of the DOPC bilayer was measured in the presence of this ionic gradient.

[2] = EIS of DOPC bilayer with K+/Na+ ion gradient after Valinomycin incorporation; type: physicochemical; details: 20 μM from ethanol solution; cavities Tris KCl, contacting solution Tris NaCl
Protocol: as §1
After sonication a DOPC bilayer was formed over the micro-cavities using a combination of Langmuir-Blodgett and vesicle fusion as described above.
Electrochemical impedance spectra (EIS) of this bilayer were measured by placing the array in contact with Tris NaCl. This creates an ion gradient across the lipid bilayer. The bilayer, effectively insulates the pore from the external contacting solution but once Valinomycin is introduced this should cause K+ ions to flow from inside the cavities into the bulk solution (see schematic in FIG. 18). The impedance of the DOPC bilayer was measured in the presence of this ionic gradient. Valinomycin was then introduced into the cell by adding 20 μM from an ethanol solution. […]

[3] = for decrease in resistivity of DOPC bilayer: between 0 and 400 umol drug, PBS buffer pH 7.4 on both sides of the pore
[4] = FLCS/FCS of labelled lipid diffusion in DOPC bilayer over buffer-filled PDMS cavity array after drug addition; type: physicochemical; details: for impact on diffusion of the lipophilic BODIPY-HPC probe: PBS pH 7.4, 15 mins incubation, ibuprofen 4-200 μmol, diclofenac 4-800 μmol
Protocol: The lower dye concentration is required for FLCS experiments.
FLCS measurements were recorded over cavities as well as flat PDMS surfaces to obtain the autocorrelation functions for each surface. […] The autocorrelation curves obtained were fit to the 2-dimensional model described in equation 1 to obtain the lateral diffusion co-efficient of the lipids in the bilayer.
where, G(τ) is the autocorrelation function, N is the average number of fluorescent molecules present in the confocal volume, τi is the characteristic residence time, and α is the anomalous parameter which reflects the extent of deviation of diffusion from normal or Brownian motion where α=1, i is the index of the components. The lateral diffusion coefficient, DL, can be obtained as DL=ω^2/4τi. In this equation, ω is the radius of the laser beam used. To determine ω for each excitation, a reference solution of free dye was used for which the diffusion coefficient is known.
The probe is BODIPY labelled DOPE at 1% mol/mol lipid.
Monitoring the diffusion of each probe permitted assessment of interaction of the drug with the membrane and where this interactions occurred; i.e. did it bind to the interface or intercalate in the bilayer? Only a single probe is necessary in most instances, however depending on the sophistication of the FCS instrument two labels can be used in a single two colour experiment or they can be applied in separate experiments to yield detailed insights into the location of the drug at the membrane.

[5] = Electrorelease of CD from cavity to cholesterol containing bilayer, bilayer resistance; type: physicochemical
Source text: As an example. Mercaptoferrocene was self-assembled only at the inner cavity surface and a blocking thiolated alcohol (mercaptoethanol or mercaptohexanol) was assembled at the top surface of the array, by modification of the top surface of the array prior to release of the templating sphere and then adhering the ferrocene after sphere removal. The ferrocene binds selectively to streptavidin modified beta-cyclodextrin (CD-streptavidin) which is assembled prior to assembly of the DOPC/DOPC biotinylated bilayer. Application of 0.5 V vs Ag/AgCl results in oxidation of the ferrocene, which in the presence of Na+ acquires a permanent positive charge, preventing reassembly of the CD-streptavidin. The released CD-streptavidin diffuses to the bilayer where its streptavidin pendant recognises and binds to biotin. Such electrorelease can be combined with EIS to allow for the detection of interaction of released agent with the bilayer, and/or it can also be combined with spectroscopic methods, such as Raman and fluorescence spectroscopy for further investigation. […] In principle, the quantity of cholesterol removed can be controlled by altering the quantity of CD at the cavity through use of a mixed monolayer

[6] = DOPC bilayer, 2.8 um PDMS pores

SMILES: CO[C@@H]1C[C@@H](C[C@H]2CC[C@H](C)[C@H]([C@@H](C)C(=O)O)O2)O[C@]2(O[C@](C)([C@H]3CC[C@@](C)([C@@H]4O[C@@H]([C@H]5O[C@@](O)(CO)[C@H](C)C[C@@H]5C)C[C@@H]4C)O3)C[C@H]2C)[C@@H]1C [Nigericin]
change of bilayer resistance after ionophore incorporation [1]: a decrease in the resistance was observed

SMILES: CC(C)[C@@H]1NC(=O)[C@H](C)OC(=O)[C@@H](C(C)C)NC(=O)[C@@H](C(C)C)OC(=O)[C@H](C(C)C)NC(=O)[C@H](C)OC(=O)[C@@H](C(C)C)NC(=O)[C@@H](C(C)C)OC(=O)[C@H](C(C)C)NC(=O)[C@H](C)OC(=O)[C@@H](C(C)C)NC(=O)[C@@H](C(C)C)OC1=O [Valinomycin]
change of bilayer resistance after ionophore incorporation [2]: a decrease in the resistance was observed

decrease in resistivity of DOPC bilayer [3]: 65%
diffusion coefficient of Atto-655 labelled DOPE ([4]; 800 μmol diclofenac, DOPC bilayer, PBS pH 7.4, at 0 drug 11.71±0.82): 43.5±8.13 μm^2 s^−1
impact on diffusion of the lipophilic BODIPY-HPC probe [4, 6]: little effect
SMILES: O=C(O)Cc1ccccc1Nc1c(Cl)cccc1Cl [diclofenac]

decrease in resistivity of DOPC bilayer [3]: roughly 6%
effect on impedance of the bilayer at equilibrium ([3]; ibuprofen at 4 and then 8 mMol, 2.8 μm gold cavity arrays, PBS pH 7.4, room temperature, ferrocyanide redox probe): decrease in impedance
diffusion coefficient of the ATTO probe (DOPE-ATTO655) ([4]; 100 μmol of ibuprofen, DOPC bilayer, PBS pH 7.4, without drug 10.37±0.72): 12.05±0.6 μm^2 s^−1
impact on diffusion of the lipophilic BODIPY-HPC probe [4, 6]: little impact
membrane lipid diffusion coefficient after exposure of the bilayer ([4]; ibuprofen 4 mMol, DOPC bilayer with 1% mol/mol BODIPY labelled DOPE, 2.8 um PDMS pores, PBS pH 7.4, room temperature, without drug approximately 7): approximately 9.5 μms^−1
SMILES: CC(C)Cc1ccc(C(C)C(=O)O)cc1 (stereo not drawn) [ibuprofen]
effect on capacitance of the layer ([3]; ibuprofen at 4 and then 8 mMol, 2.8 μm gold cavity arrays, PBS pH 7.4): initially in a decrease followed by a substantial increase in capacitance

SMILES: OC[C@H]1O[C@@H]2O[C@H]3[C@H](O)[C@@H](O)[C@@H](O[C@H]4[C@H](O)[C@@H](O)[C@@H](O[C@H]5[C@H](O)[C@@H](O)[C@@H](O[C@H]6[C@H](O)[C@@H](O)[C@@H](O[C@H]7[C@H](O)[C@@H](O)[C@@H](O[C@H]8[C@H](O)[C@@H](O)[C@@H](O[C@H]1[C@H](O)[C@H]2O)O[C@@H]8CO)O[C@@H]7CO)O[C@@H]6CO)O[C@@H]5CO)O[C@@H]4CO)O[C@@H]3CO [unlabeled CD, beta-cyclodextrin]
effect of electroreleased agent on cholesterol containing bilayer [5]: removal of cholesterol from the bilayer, reflected in a decrease in resistance of the bilayer film
